# Assay results as given in patent US7687079B2, “Methods of treating ileus” (priority 2002, dated 2010).
# “Also recorded” adds a separate entry of the source.
# How the values were obtained:
# TNFα mRNA = TNFα mRNA expression in muscularis externae of intestinal grafts (real time RT-PCR); format: in vivo, rat; conditions: SITx recipients treated with CO, 4 hours after reperfusion
# Protocol: (§1) The effects of inhalation of CO on transplant-induced pro-inflammatory and anti-inflammatory gene expression was assessed in muscularis extracts by RT-PCR. Muscularis extemae was collected from normal intestine and transplanted grafts 4 hours postoperatively and snap frozen in liquid nitrogen. This time point falls within the range of maximum inflammatory mediator expression that occurs between 3 and 6 hours following abdominal incision. Total RNA extraction was performed using the guanidium-thiocyanate phenol-chloroform extraction method as described previously (Eskandari et al., Am. J. Clin. Pathol. 75(3):367-370 (1997)). RNA pellets were resuspended in RNA-secure resuspension solution (Ambion Inc., Austin, Tex.), followed by removal of potentially contaminating DNA by treatment with DNase I (DNA-Free Kit, Ambion Inc., Austin, Tex.). Equal aliquots (5 μg) of total RNA from each sample were quantified by spectrophotometry (wavelength […]) and aliquoted at a concentration of 40 ng/μl. Peak mRNA expression was quantified in duplicate by SYBR Green two-step, real-time RT-PCR. […] Real-time PCR data were plotted as the ΔRn, fluorescence signal versus the cycle number. […] Quantification of mRNA expression was normalized to GAPDH and calculated relative to control using the comparative CT method (Schmittgen et al., J. Biochem. Biophys. Methods 46(1-2):69-8 (2000)). […]
# COX-2 mRNA = COX-2 mRNA expression in muscularis of transplanted grafts (real time RT-PCR); format: in vivo, rat; conditions: CO-treated SITx rats, 4 hours after reperfusion
# Protocol: as §1
# iNOS mRNA = iNOS mRNA in muscularis after IM (real time RT-PCR); format: in vivo, mouse; conditions: for iNOS expression, fold increase: naive mice
# Protocol: (§2) Pro- and anti-inflammatory gene expression was determined by real time RT-PCR. The small intestinal muscularis externa was collected at 4 time points (3, 6, 12, and 24 hr) postoperatively and snap frozen in liquid nitrogen. Total RNA extraction was performed using the guanidium-thiocyanate phenol-chloroform extraction method as described in Eskandari et al. (Id.) RNA pellets were resuspended in RNA-secure resuspension solution (Ambion Inc., Austin, Tex.), followed by removal of potential contaminating DNA by treatment with DNase I (DNA-Free Kit, Ambion Inc., Austin, Tex.). Equal aliquots (5 μg) of total RNA from each sample were quantified by spectrophotometry (wavelength […]). Peak mRNA expression was quantified in duplicate by SYBR Green two-step, real-time RT-PCR. β-actin was used as the endogenous reference. Aliquoted RNA (40 ng) was subjected to first-strand complementary DNA (cDNA) synthesis using random hexamers (PE applied Biosystems, Foster City, Calif.) and Super Script II (Life Technologies, Rockville, Md.). Primers were taken from the literature or designed according to published sequences (Table 3). PCR reaction mixture was prepared using SYBR Green PCR Core Reagents (PE Applied Biosystems). Each sample was estimated in duplicate using the conditions recommended by the manufacturer. Real-time PCR data were plotted as the ΔRn fluorescence signal versus the cycle number. An arbitrary threshold was set to the midlinear portion of the log ΔRn cycle plot. The threshold cycle (CT) is defined as the cycle number at which the ΔRn, crosses this threshold. Quantification of mRNA expression was normalized to β-actin and calculated relative to control using the comparative CT method.
# (§3) To exclude PCR amplification of contaminating genomic DNA, RT-negative controls (samples containing RNA which was not reverse transcribed) were included in each PCR reaction. Melting curve analyses were performed for each reaction to ensure amplification of specific product. […] PCR amplification efficiency of each target cDNA was measured by determining the colinearity of serial dilutions. […]
# IL-10 mRNA = IL-10 mRNA in muscularis after IM (real time RT-PCR); format: in vivo, mouse
# Protocol: as §2
# To exclude PCR amplification of contaminating genomic DNA, RT-negative controls (samples containing RNA which was not reverse transcribed) were included in each PCR reaction. Melting curve analyses were performed for each reaction to ensure amplification of specific product. In addition, gel electrophoresis were performed for the primers to confirm the absence of non-specific bands and that the amplicons were of the correct size. PCR amplification efficiency of each target cDNA was measured by determining the colinearity of serial dilutions. Serial 3-fold dilutions of cDNA were performed in triplicate for all primers. Standard curves were generated by plotting CT values against relative input copy number to validate the primers. Slopes of the standard curves of −3.2±0.3 with correlation coefficients of 0.99 were considered to be acceptable, having corresponding efficiencies of 100±10%. Analyses of Mediator Release from Intestinal Muscularis
# HO-1 mRNA = HO-1 mRNA in muscularis after IM (real time RT-PCR); format: in vivo, mouse
# Protocol: as §2, §3
smiles,measurement,setting,value
"[C-]#[O+] [CO, carbon monoxide]",TNFα expression,TNFα mRNA,unchanged
same,reduction of mean relative COX-2 mRNA expression,COX-2 mRNA,approximately 50%
same,iNOS expression,iNOS mRNA; naive mice exposed to CO,no effect
same,"iNOS expression, fold increase",iNOS mRNA; CO 3 hr,1.04±0.19 fold
same,"iNOS expression, fold increase",iNOS mRNA; CO 6 hr,1.26±0.19 fold
same,IL-10 gene expression relative to controls,"IL-10 mRNA; CO treated manipulated animals, 3 hr time point",43 fold
same,"IL-10 gene expression, increase over manipulation alone","IL-10 mRNA; IM + CO vs IM, 3 hr",300%
same,IL-10 message,"IL-10 mRNA; IM + CO vs IM, 3 hr but not 6 hr after surgery",increased
same,IL-10 expression,"IL-10 mRNA; control mice, CO inhalation alone, 3 and 6 hr",significant increase; also recorded: significantly increased
same,HO-1 mRNA expression,"HO-1 mRNA; IM + CO vs IM, 3 hr but not 6 hr postoperatively",significantly increased
same,"HO-1 gene expression, increase over manipulation alone","HO-1 mRNA; IM + CO vs IM, 3 hr postoperatively",300%
same,HO-1 gene expression,"HO-1 mRNA; unoperated control mice, CO alone, 6 hr time point","small, though significant, increase; also recorded: increased"
